Assay results from patent publication US20150010498A1, “Immunocytokines for Cancer Treatment in Combination with Chemotherapeutic Agents” (Philogen S.p.A., priority 2007, published 2015).

How the values were obtained:
[1] = tested on: MDA-MB-231 human breast cancer cells; assay: Biodistribution of radioiodinated F16-IL2 after doxorubicin pre-injection; type: in vivo, Balb/c nude female mice; conditions: radioiodinated F16-IL2 i.v., sacrifice 24 h after injection; 10 mg/kg doxorubicin i.v. 8 days, 24 h or 2 h before; FIGS. 1 to 4
Experimental: The in vivo targeting performance was evaluated by biodistribution analysis. Tumor-bearing mice were obtained by injecting 10̂7 MDA-MB-231 human breast cancer cells s.c. in 10- to 12-week old Balb/c nude female mice (Charles River Laboratories). Mice were grouped (n≧5) when tumors were clearly palpable and injected i.v. in the lateral tail vein with 10 mg/kg doxorubicin 8 days, 24 h or 2 h prior to biodistribution. The control group was exempted from doxorubicin administration. Purified F16-IL2 was radioiodinated and injected into the lateral tail vein of all mice. Mice were sacrificed 24 h after injection (12.5 μg, 3.3 μCi per mouse). Organs were weighed and radioactivity was counted with a Packard Cobra gamma counter. Radioactivity content of representative organs was expressed as the percentage of the injected dose per gram of tissue (%ID/g).

[2] = tested on: MDA-MB-231 human breast cancer cells; assay: Therapy of MDA-MB231 human breast cancer model implanted in nude mice (tumor growth); type: in vivo, Balb/c nude female mice; conditions: 4 mg/kg versus 1 mg/kg doxorubicin i.v.; FIG. 5
Experimental: Tumor-bearing mice were obtained by injecting 2*10̂7 MDA-MB-231 human breast cancer cells s.c. in 10- to 12-week old Balb/c nude female mice (Charles River Laboratories). Mice were grouped (n=5) 9 days after tumor cell implantation when tumors were clearly palpable and injected i.v. in the lateral tail vein with saline, 20 μg F16-IL2 (corresponding to 6.6 μg IL2), 6.6 μg recombinant IL2 (Proleukin®, and 4 mg/kg or 1 mg/kg Doxorubicin in a maximum volume of 250 μl. Mice were monitored daily and tumor growth was measured three times weekly with a caliper using the following formula: volume=length×width2×0.5. Animals were sacrificed when tumors reached a volume >2000 mm3 or when tumors became necrotic according to Swiss regulations and under a project license granted by the
Veterinäramt des Kantons Zürich (198/2005). Tumor sizes are expressed as mean±SE.
Tumor-bearing mice produced in the same way were injected i.v. in the lateral tail vein with saline, 20 μg F16-IL2 (corresponding to 6.6 μg IL2), and 1 mg/kg or 5 mg/kg taxol™ in a maximum volume of 250 μl. Mice were monitored and tumor growth measured as described above.

tubulin = conditions: compared with paclitaxel; cited from earlier work

## F16-IL2: antibody-IL2 conjugate: interleukin 2 conjugated to the anti-tenascin-C antibody 4A1-F16 (VH SEQ ID NO. 2, VL SEQ ID NO. 4)
[1]
  tumor targeting of the immunocytokine (biodistribution, %ID/g): does not impair the tumor targeting

## COc1cccc2c1C(=O)c1c(O)c3c(c(O)c1C2=O)C[C@@](O)(C(=O)CO)C[C@@H]3OC1CC(N)C(O)C(C)O1 (stereo partly drawn) [doxorubicin, (8S, 10S)-10-(4-amino-5-hydroxy-6-methyl-tetrahydro-2H-pyran-2-yloxy)-6,8,11-trihydroxy-8-(2-hydroxyacetyl)-1-methoxy-7,8,9,10-tetrahydrotetracene-5,12-dione]
[2]
  effect of doxorubicin dose on efficacy: higher doses of doxorubicin were even more effective than low doses

## A-nor-paclitaxel
tubulin
  tubulin-assembly activity relative to paclitaxel: only three times less than that of paclitaxel
